Measurements: patent CN116139126A, “表没食子儿茶素-3-没食子酸酯在制备嗜水气单胞菌的群体感应抑制剂中的应用” (Yueyang Yumeikang Bio Tech Co ltd, priority 2023, dated 2023)
≈ marks a conversion by molar mass, not a printed value. Entries after “also recorded” stand apart in the source; their conditions may differ. Like-named read-outs stand apart in the source and are kept apart here.

Legend:
[1] = tested on: Aeromonas hydrophila (嗜水气单胞菌); test: MIC/MBC by twofold dilution in TSB; type: cell-based, Aeromonas hydrophila AH08; settings: 30 °C, 24 h; for MIC: TSB
[2] = tested on: Aeromonas hydrophila (嗜水气单胞菌); test: Growth curve of A. hydrophila; type: cell-based, Aeromonas hydrophila AH08
[3] = tested on: Aeromonas hydrophila biofilm (嗜水气单胞菌生物膜); test: Biofilm inhibition test (crystal violet); type: cell-based, Aeromonas hydrophila AH08; settings: for inhibition at 128 µg/mL: Aeromonas hydrophila, 128 μg/ml, 30 °C, read-out: inhibition rate of biofilm
[4] = tested on: AI-2 of Aeromonas hydrophila (AI-2); test: AI-2 bioluminescence assay with V. harveyi BB170 reporter; type: cell-based, Aeromonas hydrophila AH08; settings: compared with control (no EGCG); 16-256 μg/mL
[5] = tested on: virulence factor and QS genes of Aeromonas hydrophila (嗜水气单胞菌毒力因子及QS基因); test: qRT-PCR of quorum sensing and virulence genes; type: cell-based, Aeromonas hydrophila AH08; settings: normalised to rpob
[6] = tested on: Aeromonas hydrophila (嗜水气单胞菌); test: Protection of zebrafish infected with A. hydrophila (survival); type: in vivo, Aeromonas hydrophila AH08; zebrafish; settings: for time of death of the first zebrafish: injected after intraperitoneal infection; for survival rate: model group 0
[7] = tested on: Aeromonas hydrophila (嗜水气单胞菌); type: in vivo, Aeromonas hydrophila AH08; zebrafish; settings: for reduction of bacterial adhesion CFU: compared with model group
[8] = tested on: Aeromonas hydrophila (嗜水气单胞菌); test: Histopathology of infected zebrafish (gill, muscle, liver; H&E); type: in vivo, Aeromonas hydrophila AH08; zebrafish
[9] = tested on: Aeromonas hydrophila (嗜水气单胞菌); settings: swarming and swimming, 64-256 μg/mL
[10] = tested on: Aeromonas hydrophila (嗜水气单胞菌); test: microbe, parasite or virus in culture; settings: 18 h
[11] = tested on: pro-inflammatory cytokine genes IL-1β, IL-8, IL-6, TNF-α (促炎细胞因子基因); test: Pro-inflammatory cytokine gene expression in zebrafish intestine (qRT-PCR); settings: 6 h after infection
[12] = read-out: inhibition rate of swarming
[13] = read-out: inhibition rate of swimming

O=C(O[C@@H]1Cc2c(O)cc(O)cc2O[C@@H]1c1cc(O)c(O)c(O)c1)c1cc(O)c(O)c(O)c1 [EGCG, 表没食子儿茶素-3-没食子酸酯]
MBC ([1]; Aeromonas hydrophila, TSB agar): 4100 µg/mL (≈ 8940 µM) | MIC ([1]; Aeromonas hydrophila, read-out: MIC): 1020 µg/mL (≈ 2230 µM) | MIC [1]: 1024 µg/mL (≈ 2230 µM) | inhibition of growth after 12 h (growth curve) ([2]; 0-256 μg/mL, 30 °C, after 12 h): 没有明显的抑制作用 | effect on lag phase (growth curve) ([2]; 0-256 μg/mL, 30 °C, od600nm): 增加了细菌的滞后期; also recorded: 延缓了嗜水气单胞菌进入对数生长期的时间 | bactericidal effect ([2]; 64-256 μg/ml, compared with control without EGCG): 不直接产生杀菌作用 | effect on growth after 24 h ([2]; sub-MIC, after 24 h): 没有明显影响 | inhibition of biofilm formation (in words) ([3]; 16-256 μg/mL): 显著抑制 | concentration dependence of biofilm inhibition ([3]; 24 h): 呈浓度依赖性 | inhibition at 128 µg/mL ([3]; 24 h): 38.3% | inhibition at 128 µg/mL ([3]; 48 h): 26.6% | AI-2 secreted by A. hydrophila [4]: 明显减少,并呈浓度依赖性 | expression of LuxR ([5]; AI-1 related gene): 不影响 | expression of ahyI ([5]; AI-1 related gene): 显著抑制 | expression of ahyR ([5]; AI-1 related gene): 显著抑制 | expression of LuxS ([5]; AI-2 synthase): 显著抑制 | expression of QseB ([5]; AI-3 related gene): 显著抑制 | expression of ahyB ([5]; elastase gene): 显著下调 | expression of flgL ([5]; flagellar gene): 显著下调 | expression of ahh1 ([5]; hemolysin gene): 显著下调 | expression of hly ([5]; hemolysin gene): 显著下调 | time of death of the first zebrafish ([6]; 50 mg/kg): 18 h | time of death of the first zebrafish ([6]; 100 mg/kg): 48 h | survival rate ([6]; high dose group (100 mg/kg), 48 h after infection): 88.9% | survival rate (in words) ([6]; low dose group (10 mg/kg), 48 h after infection, compared with model group): 与模型组的生存率相同 | survival rate ([6]; medium dose group (50 mg/kg), 48 h after infection): 88.9% | reduction of bacterial adhesion CFU ([7]; 10 mg/kg): 21.22% | reduction of bacterial adhesion CFU ([7]; 50 mg/kg): 33.47% | reduction of bacterial adhesion CFU ([7]; 100 mg/kg): 38.00% | adhesion of A. hydrophila to zebrafish (in words) ([7]; after EGCG treatment): 显著降低 | bacterial load of zebrafish (in words) ([7]; after EGCG treatment): 显著降低 | protection of tissues of infected zebrafish ([8]; dose-dependent): 显著的保护作用 | pathological damage caused by A. hydrophila ([8]; liver, muscle and gill of infected zebrafish): 明显改善 | inflammatory cell infiltration ([8]; zebrafish liver, muscle and gill): 显著减少 | inhibition of motility (in words) [9]: 显著抑制嗜水气单胞菌的运动性,且呈浓度依赖性 | inhibition at 128 µg/mL [10, 12]: 29.7% | inhibition at 256 µg/mL [10, 12]: 33% | inhibition at 64 µg/mL [10, 13]: 16% | inhibition at 128 µg/mL [10, 13]: 28.3% | inhibition at 256 µg/mL [10, 13]: 66% | expression of IL-1β [11]: 显著抑制 | expression of IL-6 [11]: 显著抑制 | expression of IL-8 [11]: 显著抑制 | expression of TNF-α [11]: 显著抑制
